From patent US8937065B2, “Compositions and methods for modulating a kinase” (Clevexel Pharma, priority 2011, dated 2015)
pIC50, pKi: −log10 of the molar value. In brackets after ≈: the same amount, converted by molar mass.

Experiments:
[1] = test system: JAK3 pathway; test: Cell based JAK3 pathway inhibition (STAT6-bla RA1 cells, IL-4 activated); details: for Emax: cell based JAK3 pathway inhibition, maximal inhibition, read-out: Max % Inh; for pIC50: STAT6-bla RA1 cells, IL-4 at EC80
Experimental: 32 μL of the cell suspension (25,000 cells) was added to each well of a 384-well TC-Treated assay plate. Cells in Assay Media were incubated for 16-24 hours in the plate at 37° C./5% CO2 in a humidified incubator. 4 μL of a 10× serial dilution of a compound of the invention was added to appropriate wells of the plate and pre-incubated at 37° C./5% CO2 in a humidified incubator with cells for 30 minutes. 4 μL of 10× control activator IL-4 at the predetermined EC80 concentration was added to wells containing the compound of the invention. The plate was incubated for 5 hours at 37° C./5% CO2 in a humidified incubator. 8 μL of 1 μM Substrate Loading Solution was added to each well and the plate was incubated for 2 hours at room temperature. The plate was read on a fluorescence plate reader.

[2] = target: T1, JAK3 (Homo sapiens, UniProt P52333); test: JAK3 enzymatic activity assay (Z'-LYTE Biochemical Kinase Assay, 2 hr preincubation at 4° C.); details: cell free, 1% DMSO, read-out: JAK3 activity cell free (2 hr preincubation at (4° C.) Kj)
T1 construct: purchased Invitrogen, Madison, Wis
T1 sequence (P52333 1-1124): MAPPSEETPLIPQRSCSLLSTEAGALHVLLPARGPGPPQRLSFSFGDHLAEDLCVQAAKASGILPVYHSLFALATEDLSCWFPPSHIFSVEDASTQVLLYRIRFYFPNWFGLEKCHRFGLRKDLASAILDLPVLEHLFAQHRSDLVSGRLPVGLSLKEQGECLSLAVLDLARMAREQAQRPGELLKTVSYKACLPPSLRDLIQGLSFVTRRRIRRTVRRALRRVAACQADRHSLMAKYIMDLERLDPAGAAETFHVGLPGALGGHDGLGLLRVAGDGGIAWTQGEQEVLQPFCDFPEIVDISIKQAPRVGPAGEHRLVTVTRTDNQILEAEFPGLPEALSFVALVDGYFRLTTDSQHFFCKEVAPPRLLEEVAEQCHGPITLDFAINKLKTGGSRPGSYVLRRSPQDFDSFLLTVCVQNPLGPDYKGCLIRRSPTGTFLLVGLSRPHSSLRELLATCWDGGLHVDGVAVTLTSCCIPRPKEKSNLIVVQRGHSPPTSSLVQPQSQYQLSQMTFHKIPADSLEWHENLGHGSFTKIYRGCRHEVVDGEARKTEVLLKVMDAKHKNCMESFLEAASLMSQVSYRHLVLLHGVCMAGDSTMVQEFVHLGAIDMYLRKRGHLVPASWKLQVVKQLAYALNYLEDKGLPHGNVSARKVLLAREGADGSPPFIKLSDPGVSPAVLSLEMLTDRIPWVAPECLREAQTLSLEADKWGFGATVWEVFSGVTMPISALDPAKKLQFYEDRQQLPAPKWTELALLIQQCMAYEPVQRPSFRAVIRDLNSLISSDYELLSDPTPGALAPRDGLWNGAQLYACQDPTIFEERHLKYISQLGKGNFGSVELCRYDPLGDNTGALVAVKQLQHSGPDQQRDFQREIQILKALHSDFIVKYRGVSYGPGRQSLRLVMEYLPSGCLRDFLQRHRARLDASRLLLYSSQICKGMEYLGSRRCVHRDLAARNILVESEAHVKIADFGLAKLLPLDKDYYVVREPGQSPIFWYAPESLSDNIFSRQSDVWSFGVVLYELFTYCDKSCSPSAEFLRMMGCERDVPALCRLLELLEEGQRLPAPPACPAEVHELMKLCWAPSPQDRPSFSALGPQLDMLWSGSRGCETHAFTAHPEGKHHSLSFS
Experimental: The assays were performed according to manufacturer's protocols, except that prior to the kinase reaction they were pre-incubated for 2 hours at 4° C., in order to be able to assay for time-dependent inhibition.
In addition to the compound, each 10 μL JAK3 kinase reaction contained 0.43-1.89 ng JAK3 and 2 μM peptide substrate in 50 mM HEPES (pH 7.5), 0.01% BRIJ-35, 10 mM MgCl2 and 1 mM EGTA. The kinase reaction was allowed to proceed for 1 hour.

[3] = physchem; details: pH 7.4, aqueous buffer, thermodynamic from solid
Experimental: The test concentration was 100 μM (0% of DMSO for test compounds, 1% of DMSO for reference compounds). The test system was a 100 mM phosphate buffer (pH 7.4). Sample size was duplicates (n=2) and the bioanalytical method was LC-UV (Agilent-1200). Mobile phase A: H2O-1% TFA, B: MeOH-1% TFA; column Boston Symmetrix ODS-H (2.1×50 mm, 5 μm); LC conditions 0.4 mL/Min.
Assay Procedure • 1. For reference compounds: • Add 8 μL of 10 mM DMSO stock solution into 792 μL of 100 mM phosphate buffer (n=2). Final conc.=100 μM (1% of DMSO)
For test compounds: • Add 8 μL of 10 mM DMSO stock solution into the tubes (n=2). • Dry the samples under nitrogen. • Add 800 μL of 100 mM phosphate buffer into the tubes. Final conc.=100 μM (0% of DMSO) • 2. Sample tubes are shaken for 1 hour (1000 rpm) at room temperature and 37° C. • 3. Samples are centrifuged (10 min-12000 rpm) to precipitate un-dissolved particles. • 4. Supernatants are transferred to new tubes • 5. Concentrations of the supernatants after centrifugation are determined by LC-UV detection.

| pIC50 [1] | pKi [2] | Compound | Emax [1] | other results |
| --- | --- | --- | --- | --- |
| – | – | O=C(c1cc(-c2csc(NCc3ccco3)n2)c[nH]1)N1CCCC1 [5A] | 68% | – |
| 5.00 to 5.96 | 5.00 to 5.96 | O=C(c1cc(-c2csc(NCc3ccco3)n2)c[nH]1)N1CCCC1 [6A] | – | – |
| – | – | O=C(CN1CCOCC1)Nc1cccc(-c2nc(-c3c[nH]c(C(=O)N4CCCC4)c3)cs2)c1 [7A (sample 1), 2-morpholino-N-(3-(4-(5-(pyrrolidine-1-carbonyl)-1H-pyrrol-3-yl)thiazol-2-yl)phenyl)acetamide] | – | solubility at 1 h ([3]; Solubility (μM) Mean): 5.9 µM (≈ 2.75 µg/mL); solubility at 1 h ([3]; Solubility in PBS): < 10 µM |
| – | 5.00 to 5.96 | Cc1csc(Cc2nc(-c3c[nH]c(C(=O)N4CCCC4)c3)cs2)n1 [8A] | – | – |
| – | 5.00 to 5.96 | CCOc1ccc(-c2nc(-c3c[nH]c(C(=O)N4CCCC4)c3)cs2)cc1OC [9A] | – | – |
| – | 5.00 to 5.96 | COc1cccc(-c2nc(-c3c[nH]c(C(=O)N4CCCC4)c3)cs2)c1 [10A] | – | – |
| 6.00 to 6.96 | – | O=C(c1cc(-c2csc(Nc3ccccc3)n2)c[nH]1)N1CCCC1 [12A] | 81% | – |
| 6.00 to 6.96 | – | O=C(c1cc(-c2csc(Nc3ccc(F)cc3)n2)c[nH]1)N1CCCC1 [13A] | 78% | – |
| – | 5.00 to 5.96 | CC(=O)c1ccc(Nc2nc(-c3c[nH]c(C(=O)N4CCCC4)c3)cs2)cc1 [14A] | – | – |
| – | < 5.00 | CN(c1ccccc1)c1nc(-c2c[nH]c(C(=O)N3CCCC3)c2)cs1 [15A] | – | – |
| – | < 5.00 | O=C(Nc1cccc(-c2nc(-c3c[nH]c(C(=O)N4CCCC4)c3)cs2)c1)c1ccccc1 [16A] | – | – |
| 6.00 to 6.96 | < 5.00 | CN1CCN(CC(=O)Nc2cccc(-c3nc(-c4c[nH]c(C(=O)N5CCCC5)c4)cs3)c2)CC1 [17A] | – | – |
| – | 5.00 to 5.96 | O=C(c1cc(-c2csc(Nc3c(F)cc(F)cc3F)n2)c[nH]1)N1CCCC1 [18A] | – | – |
| – | 5.00 to 5.96 | O=C(c1cc(-c2csc(Nc3ccc(N4CCOCC4)cc3)n2)c[nH]1)N1CCCC1 [19A] | – | – |
| 6.00 to 6.96 | – | O=C(CN1CCCCC1)Nc1cccc(-c2nc(-c3c[nH]c(C(=O)N4CCCC4)c3)cs2)c1 [20A] | 80.2% | – |
| 6.00 to 6.96 | – | CC(=O)Nc1cccc(-c2nc(-c3c[nH]c(C(=O)N4CCCC4)c3)cs2)c1 [21A] | 84.4% | – |
| 6.00 to 6.96 | – | O=C(CN1CCOCC1)Nc1ccc(-c2nc(-c3c[nH]c(C(=O)N4CCCC4)c3)cs2)cc1 [22A] | 100% | – |
| 5.00 to 5.96 | – | CN(C)C(=O)c1cc(-c2csc(-c3cccc(NC(=O)CN4CCOCC4)c3)n2)c[nH]1 [23A] | 75.1% | – |
| 5.00 to 5.96 | – | CN(C)C(=O)c1cc(-c2csc(-c3cccc(NC(=O)CN4CCCCC4)c3)n2)c[nH]1 [24A] | 74.7% | – |
